{
  "source": "paper PMC3058180",
  "about": "(Journal of pharmaceutical sciences, 2010)",
  "system": "A/Wuhan/359/95 E119V (oseltamivir-resistant)",
  "assay_type": "cell-based, influenza A virus",
  "details": "read-out: IC50 (nM of Zanamivir)",
  "data": [
    {"smiles": "CC(=O)N[C@H]1[C@H]([C@H](O)[C@H](O)CO)OC(C(=O)O)=C[C@@H]1N=C(N)N", "note": "[compound 1, Zanamivir]", "values": [
      {"measurement": "IC50", "result": 48000, "unit": "nM"}
    ]}
  ]
}
